Non-standard residues stand in square brackets, D forms with d. Residues, ends and D or L forms follow the SMILES beside them. No end group written: not given here. 2Nal = N[C@@H](Cc1ccc2ccccc2c1)C(=O)O; 2Thi = N[C@@H](Cc1cccs1)C(=O)O; β3hL = CC(C)C[C@H](N)CC(=O)O; Nle = CCCC[C@H](N)C(=O)O; βAla = NCCC(=O)O

Usually IC50 stands for the midpoint of a concentration-inhibition curve. By EC50 is commonly meant the concentration at which the effect is half-maximal.

In one test the test system is SaOS-2/B10 cells. It counts as binding. As to conditions: 2 h. The procedure:
SaOS-2/B10 cells were maintained in RPMI1640 medium supplemented with 10% fetal bovine serum (FBS) and 2 mM glutamine at 37° C. in a humidified atmosphere of 5% CO2 in air. The medium was changed every three to four days, and the cells were subcultured every week by trypsinization.
SaOS-2/B10 cells were maintained for four days after they had reached confluence. The medium was replaced with 5% FBS […] medium and incubated for 2 hrs at room temperature with 10×10^4 cpm mono-^125I-[Nle^8,18,Tyr^34(3-^125I)]bPTH(1-34)NH2 in the presence or absence of a competing tested polypeptide of the invention. The cells were washed four times with ice-cold PBS and lysed with 0.1M NaOH, and the radioactivity associated with the cells was counted in a scintillation counter. Synthesis of the radiolabelled [Nle^8,18,Tyr^34(3-^125I)]bPTH(1-34)NH2 was carried out as described in Goldman M. E., et al., Endocrinology, (1988), 123, 1468-1475.
The binding assay was conducted on the polypeptides of the invention having SEQ ID NO:5, 6, 7, 9, 10, 11, and 12.

Test [1] relates to adenylate cyclase in SaOS-2/B10 cells. Kind of test: Stimulation of adenylate cyclase activity in SaOS-2/B10 cells. It counts as cell-based. Conditions: 1 mM IBMX, 5 min incubation, read-out: EC50 (half maximal stimulation of adenylate cyclase). The procedure: The adenylate cyclase activity induced by each of the tested polypeptides of the invention was also measured in SaOS-2/B 10 cells as described previously (Rodain et al., J. Clin. Invest. (1983) 72,1511; Goldman, et al., Endocrinology (1988) 123, 1468). Conflúnt SaOS-2/B10 cells in 24 wells plates were incubated with 0.5 μCi [^3H]adenine (26.9 Ci/mmol, New England Nuclear, Boston, Mass. in fresh medium at 37° C. for 2 hrs. and washed twice with Hank's solution. The cells were treated with 1 mM IBMX (isobutylmethylxanthine, Sigma, St. Louis, Mo.) in fresh medium for 15 min. and a tested PTH analog was added to the medium to incubate for 5 min. The reaction was stopped by the addition of 1.2M TCA followed by sample neutralization with 4N KOH. Cyclic AMP was isolated by the two-column chromatographic method (Salomon, et al., Anal. Biochem. (1974) 58, 541). The radioactivity was counted in a scintillation counter (Liquid scintillation counter 2200CA, PACKARD, Downers Grove, Ill.).

For test [2], the target named is T1, recombinant hPTH1-receptor (Homo sapiens, UniProt Q03431).
T1 construct: expressed in transfected cells
T1 sequence (Q03431 27-593): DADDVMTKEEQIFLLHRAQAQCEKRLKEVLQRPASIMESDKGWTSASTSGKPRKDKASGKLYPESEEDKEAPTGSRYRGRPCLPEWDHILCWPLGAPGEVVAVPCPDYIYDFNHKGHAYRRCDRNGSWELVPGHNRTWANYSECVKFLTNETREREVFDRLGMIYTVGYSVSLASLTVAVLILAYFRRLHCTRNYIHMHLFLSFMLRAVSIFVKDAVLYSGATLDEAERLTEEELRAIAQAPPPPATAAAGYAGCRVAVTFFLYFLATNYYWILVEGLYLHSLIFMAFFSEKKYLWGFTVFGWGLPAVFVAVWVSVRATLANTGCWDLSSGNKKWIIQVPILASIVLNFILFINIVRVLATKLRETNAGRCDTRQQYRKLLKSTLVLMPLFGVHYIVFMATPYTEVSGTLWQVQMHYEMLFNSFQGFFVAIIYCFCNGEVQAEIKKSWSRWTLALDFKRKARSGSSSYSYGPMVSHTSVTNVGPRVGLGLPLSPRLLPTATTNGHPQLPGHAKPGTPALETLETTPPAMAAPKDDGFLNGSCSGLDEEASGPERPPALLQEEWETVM
Kind of test: Radioreceptor competition binding, 125I-PTH(1-34), HEK293/C21 cells. Conditions: 125I-PTH(1-34) ~0.1 nM, 2 h at room temperature. How it is done:
Human embryonic kidney (HEK293) cells, stably transfected with recombinant hPTH1-receptor (HEK293/C21 cell line, ˜400,000 receptors/cell) (Pines, M., Adams, A. E., Stueckle, S., Bessalle, R., Rashti-Behar, V., Chorev, M., Rosenblatt, M., and Suva, L. J. Endocrinology 1994, 135, 1713-1716), were maintained in D-MEM medium supplemented with 10% fetal bovine serum and […] glutamine at 37° C. in a humidified atmosphere of 95% air/5% CO2. The medium was changed every 3-4 days, and the cells were subcultured every week. Ligand stimulated adenylyl cyclase activity and radioreceptor competition binding assays were performed on confluent cultures, 1-3 days after a change of medium.
[Nle^8,18,Nal^23,Tyr^34]bPTH(1-34)-NH2 was radioiodinated and the crude material was purified as previously described (Roubini, E., Duong, L. T., Gibbons, S. W., Leu, C. T., Caulfield, M. P., Chorev, M., and Rosenblatt, M. Biochemistry 1992, 31, 4026-4033). […] The pure mono-radioiodinated peptide was isolated on an analytical RP-HPLC Vydac Protein C18 column (The Separation Group, Hesperia, Calif.) employing a linear gradient of 36-42% B in A for 30 min (A, 0.1% TFA in water; B, 0.1% TFA in acetonitrile) at a flow rate of 1 mL/min, and monitored at 220 nm. […]

For test [3], the system named is PTH-stimulated adenylate cyclase. As to conditions: background, literature report; cited from earlier work.
The next test relates to renal PTH receptors. Conditions: background, literature report; cited from earlier work.

Turning to `CC[C@H](C)[C@H](NC(=O)[C@H](CO)NC(=O)[C@H](CCCCN)NC(=O)CNC(=O)[C@H](CCCCN)NC(=O)[C@H](CC(=O)O)NC(=O)[C@H](Cc1c[nH]cn1)NC(=O)[C@H](CC(C)C)NC(=O)[C@H](CC(C)C)NC(=O)[C@H](CCC(N)=O)NC(=O)[C@H](Cc1c[nH]cn1)NC(=O)[C@H](CCC(=O)O)NC(=O)[C@H](CO)NC(=O)[C@@H](NC(=O)[C@H](C)N)C(C)C)C(=O)N[C@@H](CCC(N)=O)C(=O)N[C@@H](CC(=O)O)C(=O)N[C@@H](CC(C)C)C(=O)N[C@@H](CCCNC(=N)N)C(=O)N[C@@H](CCCNC(=N)N)C(=O)N[C@@H](CCCNC(=N)N)C(=O)N[C@@H](CCC(=O)O)C(=O)N[C@@H](CC(C)C)C(=O)N[C@@H](CC(C)C)C(=O)N[C@@H](CCC(=O)O)C(=O)N[C@@H](CCCCN)C(=O)N[C@@H](CC(C)C)C(=O)N[C@@H](CC(C)C)C(=O)N[C@@H](CCC(=O)O)C(=O)N[C@@H](CCCCN)C(=O)N[C@@H](CC(C)C)C(=O)N[C@@H](Cc1cccs1)C(=O)N[C@H](C(=O)N[C@@H](C)C(N)=O)[C@@H](C)O` [SEQ ID NO: 9, [Glu^22,25,29,Leu^23,28,31,Lys^26,30,Thi^32]hPTHrP(1–34)NH2] (H-AVSEHQLLHDKGKSIQDLRRRELLEKLLEKL[2Thi]TA-NH2; N-terminus assumed), in the test with SaOS-2/B10 cells, the IC50 turned out to be 90 nM. In addition, the EC50 in test [1] turned out to be 10 nM.
In the case of `CCCC[C@H](NC(=O)[C@H](Cc1ccccc1)NC(=O)[C@H](CCC(N)=O)NC(=O)[C@@H](NC(=O)[C@H](CCC(=O)O)NC(=O)[C@H](CO)NC(=O)[C@@H](NC(=O)[C@H](C)N)C(C)C)[C@@H](C)CC)C(=O)N[C@@H](Cc1c[nH]cn1)C(=O)N[C@@H](CC(N)=O)C(=O)N[C@@H](CC(C)C)C(=O)NCC(=O)N[C@@H](CCCCN)C(=O)N[C@@H](Cc1c[nH]cn1)C(=O)N[C@@H](CC(C)C)C(=O)N[C@@H](CO)C(=O)NCCC(=O)N[C@H](CC(=O)NCCC(=O)N[C@@H](CCCNC(=N)N)C(=O)N[C@H](C(=O)N[C@@H](CCC(=O)O)C(=O)N[C@@H](Cc1ccc2ccccc2c1)C(=O)N[C@@H](CC(C)C)C(=O)N[C@@H](CCCNC(=N)N)C(=O)N[C@@H](CCCCN)C(=O)N[C@@H](CCCCN)C(=O)N[C@@H](CC(C)C)C(=O)N[C@@H](CCC(N)=O)C(=O)N[C@@H](CC(=O)O)C(=O)N[C@H](C(=O)N[C@@H](Cc1c[nH]cn1)C(=O)N[C@@H](CC(N)=O)C(=O)N[C@@H](Cc1ccc(O)cc1)C(N)=O)C(C)C)C(C)C)CC(C)C` [SEQ ID NO: 17, [Nle^8,β-Ala^17,19,β-hLeu^18,Nal^23,Tyr^34]bPTH(1–34)NH2] (H-AVSEIQF[Nle]HNLGKHLS[βAla][β3hL][βAla]RVE[2Nal]LRKKLQDVHNY-NH2; N-terminus assumed), the half-maximal inhibitory concentration (IC50) in test [2] was over 1000 nM.
“AVSEHQLLHDKGKSIQDLRRREFLEKLIEKIHTA-NH2 [SEQ ID NO: 12, [Glu^22,25,29,Lys^26,30]hPTHrP(1–34)NH2]” showed an IC50 in the test with SaOS-2/B10 cells of 5.5 nM. For the same molecule, the EC50 in test [1] was 0.42 nM.
The molecule “AVSEHQLLHDKGKSIQDLRRRELLEKLLELLHTA-NH2 [SEQ ID NO: 10, [Glu^22,25,29,Leu^23,28,30,31,Lys^26]hPTHrP(1–34)NH2]” returned an IC50 with SaOS-2/B10 cells of 70 nM. Also, the concentration for a half-maximal effect (EC50) in test [1] is 5 nM.
“AVSEHQLLHDKGKSIQDLRRRFLLHHLLAELHTA-NH2 [SEQ ID NO: 11, [Leu^23,28,31]hPTHrP(1–34)NH2]”: in the test with SaOS-2/B10 cells, the IC50 stood at 18.3 nM. Moreover, the EC50 in test [1] turned out to be 0.74 nM.
Consider “PTH(1 -25) (SVSEIQLMHNLGKHLNSMERVEWLR; Parathyroid hormone; UniProt P01270 32-56, looked up, fragment) [carboxyl-terminally truncated PTH fragment of residues 1-25]”, for which the “activity of carboxyl-terminally truncated PTH” value in test [3] is “essentially inactive”.
With “PTH(25-34) (RKKLQDVHNF; Parathyroid hormone; UniProt P01270 56-65, looked up, fragment) [PTH fragment of residues 25-34]”, the “receptor binding / affinity for renal PTH receptors” value with renal PTH receptors is reported as “weak receptor binding activity”.
Turning to “SVSEIQLMHNLGKHLNSMERVELLEKLLEKLHNF-NH2 [SEQ ID NO: 5, [Glu^25,29,Leu^23,27,31,Lys^30]hPTH(1–34)NH2]”, in the test on SaOS-2/B10 cells, the IC50 was found to be 216 nM. For the same molecule, in test [1], the EC50 turned out to be 24 nM.
In the test with SaOS-2/B10 cells, “SVSEIQLMHNLGKHLNSMERVELLRKLLQDLHNF-NH2 [SEQ ID NO: 7, [Leu^23,27,31]hPTH(1–34)NH2]” returned an IC50 of 41 nM. Moreover, the EC50 in test [1] stood at 1.12 nM.
In the case of “SVSEIQLMHNLGKHLNSMERVEWLEKKLEKVHNF-NH2 [SEQ ID NO: 6, [Glu^25,29,Lys^30]hPTH(1–34)NH2]”, in the test on SaOS-2/B10 cells, the IC50 came to 30 nM. Further, the EC50 in test [1] turned out to be 25.5 nM.
Regarding [Tyr^34]bPTH(7-34)NH2, the agonist activity entry in test [3] is “does not have any agonist activity”. Further, the “receptor binding / affinity for renal PTH receptors” value with renal PTH receptors is listed as “moderate affinity”.

Source of the values: US7799757B2, “Analogs of parathyroid hormone and PTH-related protein as bone anabolic agents” (priority 2002, dated 2010).
